“Also recorded” adds a separate entry of the source.
Key:
Assay type in all cases: in vivo, human
[1] = tested on: subjects who met the Rome Criteria for IBS; assay: Brief Mood Survey in IBS study; details: for Regression analysis: dependence of mood score on drug dosage: larger doses
From the text: (§1) This is a longitudinal single blinded, randomized placebo controlled study in which patients act as their own controls. Subjects were volunteers who met the Rome Criteria for IBS and without other active bowel disease (i.e. GERD, colon cancer). Both adult men and women participated, ranging in age from 23 to 75 years old, with greater number of women by a ratio of 2.5:1. Subjects responded to a Bowel Symptom Questionnaire (B. Naliboff, UCLA) as well as a Brief Mood Survey (D. Burns, Stanford). […] In addition, data was collected during a washout period of one week without any study drug.
(§2) Benefit in treating chronic IBS using nerve-acting agents was quantified by a decrease in mean values of abdominal pain with a 20-point Visual Analogue scale and a decrease in bowel symptoms (bloating, etc.) using a 20-point scale. Mood was also followed by a Brief Mood Survey, which rates Depression, Anxiety, Panic, Anger and Suicidal Urge (88 points maximum total).

[2] = tested on: subjects who met the Rome Criteria for IBS; assay: IBS study, symptom scores overall (VAS pain, bloating, mood); details: for Drug effect versus placebo effect, overall / Reduction of symptoms overall (H0 no reduction vs H1 some reduction): result in words
From the text: as §1
(§3) A titration period of three to four weeks is being used to stabilize each patient on an efficacious dose of medication. […] During each week of the titration period, the cocktail was modified to allow a gradual increase or decrease in dose. Results were collected weekly by questionnaires.
as §2

[3] = tested on: subjects who met the Rome Criteria for IBS; assay: VAS abdominal pain score (20-point Visual Analogue scale) in IBS study; details: for Regression analysis: dependence of VAS score on drug dosage: larger doses; for p-value of drop in mean VAS pain scores: oral
From the text: as §1, §3, §2

[4] = tested on: subjects who met the Rome Criteria for IBS; assay: Bloating score (20-point scale, Bowel Symptom Questionnaire) in IBS study; details: for Regression analysis: dependence of bloating score on drug dosage: larger doses
From the text: as §1, §3, §2

[5] = tested on: subjects who met the Rome Criteria for IBS; assay: Side effects reported in IBS study; details: 25 mg qhs; resolved after discontinuation
From the text: This is a longitudinal single blinded, randomized placebo controlled study in which patients act as their own controls. Subjects were volunteers who met the Rome Criteria for IBS and without other active bowel disease (i.e. GERD, colon cancer). Both adult men and women participated, ranging in age from 23 to 75 years old, with greater number of women by a ratio of 2.5:1. Subjects responded to a Bowel Symptom Questionnaire (B. Naliboff, UCLA) as well as a Brief Mood Survey (D. Burns, Stanford). Baseline questionnaire results were taken just prior to any drug treatment as well as shortly after. In addition, data was collected during a washout period of one week without any study drug. Drugs studied included intravenous lidocaine and a trial of the oral mexiletine, topiramate, gabapentin or placebo.
as §3

[6] = intravenous, 22 subjects, 20 point scale

| Structure (SMILES) | Effect on mood (H0 no reduction vs H1 some reduction) ([1]; result in words) | Relief of symptoms of abdominal pain, bloating and distension in IBS ([2]; intravenous) | Drug effect versus placebo effect, overall [2] | Reduction of symptoms overall (H0 no reduction vs H1 some reduction) [2] | Reduction of symptoms overall (H0 no reduction vs H1 some reduction) ([2]; listed as Lidocaine) | VAS Pain scores, mean reduction [3, 6] | Reduction of VAS (H0 no reduction vs H1 some reduction) ([3]; result in words) | Bloating, mean reduction [4, 6] | Reduction of bloating (H0 no reduction vs H1 some reduction) ([4]; result in words) | Regression analysis: dependence of mood score on drug dosage [1] | Regression analysis: dependence of VAS score on drug dosage [3] | VAS: drug effect versus placebo effect ([3]; result in words) | Results in decreasing bloating ([4]; all dosages, 300 mg, 450 mg & 900 mg) | Regression analysis: dependence of bloating score on drug dosage [4] | Bloating: drug effect versus placebo effect ([4]; result in words) | p-value of drop in mean VAS pain scores ([3]; 300 mg) | p-value of drop in mean VAS pain scores ([3]; 600 mg) | Side effects reported: fatigue, number of subjects [5] | Regression analysis: dependence of any score on drug dosage ([2]; larger doses) | Effect on decreasing bloating ([4]; 60 mg) |
| --- | --- | --- | --- | --- | --- | --- | --- | --- | --- | --- | --- | --- | --- | --- | --- | --- | --- | --- | --- | --- |
| CCN(CC)CC(=O)Nc1c(C)cccc1C [lidocaine] | highly significant | very effective | much stronger effect than placebo | All patients had a significant drop in their scores | most influential drug of all | 4.80 | highly significant | 6.8 | highly significant | – | – | – | – | – | – | – | – | – | – | – |
| Cc1cccc(C)c1OCC(C)N (centres unmarked) [mexiletine] | – | – | – | significant at all dosages | – | – | – | – | – | not very important for mood | some effect | different from placebo at all levels | significant results in decreasing bloating | some effect | different from placebo at all levels | – | – | – | – | – |
| NCC1(CC(=O)O)CCCCC1 [gabapentin] | – | – | different from placebo at doses 600 mg and higher | become more pronounced as the dosage is increased | – | – | – | – | – | not very important for mood | some effect | – | – | some effect | – | 0.06 | 0.04 | – | – | – |
| CC1(C)O[C@@H]2[C@@H](CO[C@@]3(COS(N)(=O)=O)OC(C)(C)O[C@@H]23)O1 [topiramate] | – | – | – | least effect of all drugs; also recorded: barely become significant at doses of 50 mg and higher | – | – | – | – | – | – | – | different from placebo for VAS and bloating at doses 50 mg and higher | – | – | different from placebo for VAS and bloating at doses 50 mg and higher | – | – | Two | do not significantly reduce any score in a predictable manner | borderline effect |

Source: patent publication US7750046B2, “Treatment of symptoms associated with irritable bowel syndrome” (The Board of Trustees of the Leland Stanford Jr. University, priority 2001, dated 2010)
